The source of these data is US20240002388A1, “PYRIMIDINONE COMPOUNDS AND USES THEREOF” (HUTCHISON MEDIPHARMA LIMITED, priority 2020, published 2024).

The first test has as its system L929 cell line (mouse fibroblastoma cell line). Kind of test: L929 cell viability assay (mTNF-α + Z-VAD-FMK induced necroptosis). Type of test: cell-based. As to conditions: L929 cells, mTNF-α 0.1 μg/mL + Z-VAD-FMK 5 μM, 20 hours, CellTiter-Glo. The procedure:
L929 cell line (mouse fibroblastoma cell line): purchased from ATCC (American Type Culture Collection) Cell Bank, cultured in 5% CO2, 37° C. incubator, and MEM medium which contains L-Glutamine, with 10% FBS was used. • MEM medium: GIBCO, Cat #11095080; • Fetal bovine serum (FBS): GIBCO, Cat #10099-141C; • Dimethyl sulfoxide (DMSO): Sigma, Cat #D2650; • 0.25% Trypsin-EDTA: GIBCO, Cat #25200072; • Recombinant Mouse TNF-alpha Protein (mTNF-α): R&D system, Cat #410-MT-050; • Pan-Caspase inhibitor (Z-VAD-FMK): Selleckchem, Cat #S7023; • CellTiter-Glo 2.0 Cell Viability Assay kit: Promega, Cat #G9242; • Microwell plate reader: Envision, Perkin Elmer; • 96-well plate: Corning, Cat #3917.
The L929 cells at the logarithmic phase were taken out, and the supernatant was discarded. After trypsinization and cell shedding, 10% FBS-containing medium was added for neutralization, and the supernatant was discarded after centrifugation. The cells were re-suspended using 10% FBS-containing medium, adjusted to 7×10^4 cells/ml, added to 96-well microplate at 70 μL/well, i.e., 4.9×10^3 cells/well. Then the plate was incubated in a 5% CO2, 37° C. cell incubator overnight.
After incubating overnight, the 96-well plate was taken out, the medium was discarded, and the plate was washed with 1% FBS-containing MEM medium. Then 1% FBS-containing MEM medium was added at 70 μL/well, and the plate was cultured in a 5% CO2, 37° C. cell incubator. After incubating for 1 hour, the test compound was diluted to the corresponding concentrations using DMSO with 3-fold serial dilution, then the corresponding concentration of DMSO diluted solution was diluted into 1% FBS-containing MEM medium, and 10 μL/well of the diluted test compound with different concentrations (final concentrations of test compound were 10, 3.33, 1.11, 0.37, 0.12, 0.04, 0.014 and 0.005 μM, while final concentration of DMSO was 0.3%) or 10 μL/well control solution (3% DMSO) were added to the cell culture system respectively, with the total volume being 80 μL/well. Then 10 μL of Z-VAD-FMK solution diluted with 1% FBS-containing MEM medium (final concentration of 5 μM) or 10 μL of control solution (2.5% DMSO) was added to each well, with the total volume being 90 μL/well. The plate was incubated in a 5% CO2, 37° C. cell culture incubator for 1 hour.
After incubating for 1 hour, 10 μL of recombinant mouse TNF-α protein solution diluted with 1% FBS-containing MEM medium (final concentration of 0.1 μg/mL) or 10 μL control solution (1% FBS-containing MEM medium) was added to each well. The plate was incubated in a 5% CO2, 37° C. cell culture incubator for 20 hours.
The cell culture plate was taken out from the incubator, and left to stand at room temperature for 30 minutes. Meanwhile, CellTiter-Glo viability assay kit was put from freezer to room temperature, and 50 μL of CellTiter-Glo reagent was added to all wells, the plate was shaken for 1 minutes, protected from light at room temperature for 10 minutes then read the plate on Envision to get the luminescence signal.
The 96-well plate in the dark was taken out, and the chemiluminescence was determined using the Envision microwell plate reader as the signal value of each well.
The mean signal value of the wells of the mixed solution of recombinant mouse TNF-alpha protein (final concentration of 0.1 μg/mL) and Pan-Caspase inhibitor (final concentration of 5 μM) was used as the lower value, and the mean signal value of the wells without stimulation was used as the upper value. According to the signal value of each well, the inhibition rate of each concentration of every compound was calculated, and the IC50 value of compound was obtained by Model 205 in XL-Fit 5.3 software (ID Business Solutions Limited).
Inhibition rate %=[(Luminescence readout of treated compound−Luminescence readout of positive control)/(Luminescence readout of negative control−Luminescence readout of positive control)]×100%, wherein
(Cellular ATP, detected with luciferase, serves as a proxy for viable cell number.)
As usually defined, the IC50 is the concentration that inhibits the measured activity by half. `CC(C)n1ncc2cnc(C(=O)NC3(c4ccc(-c5cncn([C@H]6C[C@@H](F)C6)c5=O)cc4)CC3)nc21` [Compound 88, N-(1-(4-(1-(cis-3-fluorocyclobutyl)-6-oxo-1,6-dihydropyrimidin-5-yl)phenyl)cyclopropyl)-1-i-propyl-1H-pyrazolo[3,4-d]pyrimidine-6-carboxamide]: the half-maximal inhibitory concentration (IC50) turned out to be 335 nM.

Staying with this test, now noted: Mus musculus, L929, 20 h, L929 cells, mTNF-α 0.1 μg/mL + Z-VAD-FMK 5 μM, CellTiter-Glo.
Take `CC(C)n1ncc2cnc(C(=O)NC3(c4ccc(-c5cncn(CC(F)(F)F)c5=O)cc4)CC3)nc21` [Compound 38]: the IC50 came to 152 nM.

For the molecule `CC(C)n1ncc2cnc(C(=O)NC3(c4ccc(-c5cncn([C@H](C)C(F)(F)F)c5=O)cc4)CC3)nc21` [Compound 39], the IC50 was 59 nM. The same measure, in the same setting: the figure for `CC(C)n1ncc2cnc(C(=O)NC3(c4ccc(-c5cncn([C@@H](C)C(F)(F)F)c5=O)cc4)CC3)nc21` [Compound 40] is 109 nM; for `CC(C)n1ncc2cnc(C(=O)NC3(c4ccc(-c5cncn(C6COC6)c5=O)cc4)CC3)nc21` [Compound 41] it is 1970 nM; for `CC(C)n1ncc2cnc(C(=O)NC3(c4ccc(-c5cncn(C6CCC6)c5=O)cc4)CC3)nc21` [Compound 42] it is 119 nM. On the same count and under the same terms, as for `CC[C@H](C)n1cncc(-c2ccc(C3(NC(=O)c4ncc5cnn(C(C)C)c5n4)CC3)cc2)c1=O` [Compound 43], the figure is 16 nM; as for `CC[C@@H](C)n1cncc(-c2ccc(C3(NC(=O)c4ncc5cnn(C(C)C)c5n4)CC3)cc2)c1=O` [Compound 44], 28 nM.

For the molecule `CC(C)Cn1cncc(-c2ccc(C3(NC(=O)c4ncc5cnn(C(C)C)c5n4)CC3)cc2)c1=O` [Compound 45], the concentration for half-maximal inhibition (IC50) stood at 58 nM. For the molecule `Cn1cncc(-c2ccc(C3(NC(=O)c4nc5n(n4)[C@@H](c4ccccc4)CC5)CC3)cc2)c1=O` [Compound 54, (R)—N-(1-(4-(1-methyl-6-oxo-1,6-dihydropyrimidin-5-yl)phenyl)cyclopropyl)-5-phenyl-6,7-dihydro-5H-pyrrolo[1,2-b][1,2,4]triazole-2-carboxamide], the IC50 amounted to 578 nM. Same read-out and setting: as for `C[C@H](c1ccccc1)n1cnc(C(=O)NC2(c3ccc(-c4cncn(C)c4=O)cc3)CC2)n1` [Compound 55, (R)—N-(1-(4-(1-methyl-6-oxo-1,6-dihydropyrimidin-5-yl)phenyl)cyclopropyl)-1-(1-phenylethyl)-1H-1,2,4-triazole-3-carboxamide], the figure is 259 nM; as for `CC(C)n1cncc(-c2ccc(C3(NC(=O)c4ncc5cnn(C6COC6)c5n4)CC3)cc2)c1=O` [Compound 60], 9080 nM. In the case of `CC(C)n1cncc(-c2ccc(C3(NC(=O)c4ncc5cnn(CC6CC6)c5n4)CC3)cc2)c1=O` [Compound 61], the IC50 stood at 48 nM. Regarding `CC(C)n1cncc(-c2ccc(C3(NC(=O)c4ncc5cnn(CC6CCC6)c5n4)CC3)cc2)c1=O` [Compound 62], the IC50 turned out to be 27 nM. For the molecule `CC(C)n1cncc(-c2ccc(C3(NC(=O)c4ncc5cnn(-c6ccccn6)c5n4)CC3)cc2)c1=O` [Compound 63], the IC50 stood at 9420 nM. Take `O=C(NC1(c2ccc(-c3cncn(CC4CC4)c3=O)cc2)CC1)c1ncc2cnn(CC3CC3)c2n1` [Compound 64]: the IC50 came out at 79 nM. Still for that read-out and setting: the figure for `CC(C)n1ncc2cnc(C(=O)NC3(c4ccc(-c5cncn(C6CC(F)(F)C6)c5=O)cc4)CC3)nc21` [Compound 65] is 861 nM; for `CC(C)n1ncc2cnc(C(=O)NC3(c4ccc(-c5cncn(CC6CCC6)c5=O)cc4)CC3)nc21` [Compound 66] it is 53 nM. Still for that read-out and setting: the figure for `CC(C)n1ncc2cnc(C(=O)NC3(c4ccc(-c5cncn([C@H]6C[C@@H]6F)c5=O)cc4)CC3)nc21` [Compound 67] is 5650 nM; for `C[C@H](n1cncc(-c2ccc(C3(NC(=O)c4ncc5cnn(CC6CC6)c5n4)CC3)cc2)c1=O)C(F)(F)F` [Compound 68] it is 32 nM; for `CC(C)n1ncc2cnc(C(=O)NC3(c4ccc(-c5cncn([C@@H]6C[C@@H]6F)c5=O)cc4)CC3)nc21` [Compound 69] it is 98 nM.

Consider `C[C@@H](n1cncc(-c2ccc(C3(NC(=O)c4ncc5cnn(CC6CC6)c5n4)CC3)cc2)c1=O)C(F)(F)F` [Compound 70], for which the IC50 was 12 nM. The same measure, in the same setting: as for `C[C@H](n1cncc(-c2ccc(C3(NC(=O)c4ncc5cnn(CC6CC6)c5n4)CC3)c(F)c2)c1=O)C(F)(F)F` [Compound 71], the figure is 20 nM. The same measure, in the same setting: the figure for `CC(C)n1cncc(-c2ccc(C3(NC(=O)c4ncc5cnn(CC6CC6)c5n4)CC3)c(F)c2)c1=O` [Compound 72] is 16 nM; for `CC(C)n1cncc(-c2ccc(C3(NC(=O)c4ncc5cnn(CC6CC6)c5n4)CC3)cc2F)c1=O` [Compound 73] it is 41 nM; for `CC(C)n1ncc2cnc(C(=O)NC3(c4ccc(-c5cncn(CC6CC6)c5=O)cc4F)CC3)nc21` [Compound 74] it is 30 nM.

`CC(C)n1ncc2cnc(C(=O)NC3(c4ccc(-c5cncn(CC6CC6)c5=O)c(F)c4)CC3)nc21` [Compound 75]: the IC50 amounted to 41 nM. The same measure, in the same setting: the figure for `C[C@@H](n1cncc(-c2ccc(C3(NC(=O)c4ncc5cnn(CC6CC6)c5n4)CC3)c(F)c2)c1=O)C(F)(F)F` [Compound 76] is 32 nM. `CC(C)n1ncc2cnc(C(=O)NC3(c4ccc(-c5cncn(C6CCOCC6)c5=O)cc4)CC3)nc21` [Compound 77]: the IC50 was determined as 151 nM. The same measure, in the same setting: as for `CC(C)n1ncc2cnc(C(=O)NC3(c4ccc(-c5cncn(C6(C)CC6)c5=O)cc4)CC3)nc21` [Compound 78], the figure is 44 nM; as for `CC(C)n1ncc2cnc(C(=O)NC3(c4ccc(-c5cncn(C6(C)CCC6)c5=O)cc4)CC3)nc21` [Compound 79], 10 nM.

As for `CC(C)n1ncc2cnc(C(=O)NC3(c4ccc(-c5cncn([C@H](C)C6CC6)c5=O)cc4)CC3)nc21` [Compound 84, (R)—N-(1-(4-(1-(1-cyclopropylethyl)-6-oxo-1,6-dihydropyrimidin-5-yl)phenyl)cyclopropyl)-1-i-propyl-1H-pyrazolo[3,4-d]pyrimidine-6-carboxamide], the IC50 was found to be 7 nM. For `CC(C)n1ncc2cnc(C(=O)NC3(c4ccc(-c5cncn([C@@H](C)C6CC6)c5=O)cc4)CC3)nc21` [Compound 85, (S)—N-(1-(4-(1-(1-cyclopropylethyl)-6-oxo-1,6-dihydropyrimidin-5-yl)phenyl)cyclopropyl)-1-i-propyl-1H-pyrazolo[3,4-d]pyrimidine-6-carboxamide], the IC50 worked out at 13 nM.

Turning to `CC(C)n1ncc2cnc(C(=O)NC3(c4ccc(-c5cncn(CC6(C)CC6)c5=O)cc4)CC3)nc21` [Compound 86], the IC50 turned out to be 19 nM. On the same count and under the same terms, the figure for `CC(C)n1ncc2cnc(C(=O)NC3(c4ccc(-c5cncn([C@H]6C[C@H](F)C6)c5=O)cc4)CC3)nc21` [Compound 87, N-(1-(4-(1-(trans-3-fluorocyclobutyl)-6-oxo-1,6-dihydropyrimidin-5-yl)phenyl)cyclopropyl)-1-i-propyl-1H-pyrazolo[3,4-d]pyrimidine-6-carboxamide] is 393 nM; for `CC(C)n1cncc(-c2ccc(C3(NC(=O)c4ncc5cnn([C@H](C)C6CC6)c5n4)CC3)cc2)c1=O` [Compound 89, (R)-1-(1-cyclopropylethyl)-N-(1-(4-(1-i-propyl-6-oxo-1,6-dihydropyrimidin-5-yl)phenyl)cyclopropyl)-1H-pyrazolo[3,4-d]pyrimidine-6-carboxamide] it is 38 nM.
